ChEMBL document CHEMBL5442741, “ASAP - In vitro kinase profile” (2024)
Where “and” joins values, the source holds several entries; their conditions need not be identical. Equal entries are not always repeated.

Legend:
[1] = molecular target: T1, Serine/threonine-protein kinase Nek2 (Homo sapiens) (UniProt P51955); assay: Enzymatic radiometric [Km ATP] KinaseProfiler LeadHunter assay, kinase: NEK2, catalogue number: 14-545KP The assay has been performed by Eurofins Discovery.; details: ATP concentration 120.0 uM, Test compound concentration 10.0 uM
T1 sequence (whole entry): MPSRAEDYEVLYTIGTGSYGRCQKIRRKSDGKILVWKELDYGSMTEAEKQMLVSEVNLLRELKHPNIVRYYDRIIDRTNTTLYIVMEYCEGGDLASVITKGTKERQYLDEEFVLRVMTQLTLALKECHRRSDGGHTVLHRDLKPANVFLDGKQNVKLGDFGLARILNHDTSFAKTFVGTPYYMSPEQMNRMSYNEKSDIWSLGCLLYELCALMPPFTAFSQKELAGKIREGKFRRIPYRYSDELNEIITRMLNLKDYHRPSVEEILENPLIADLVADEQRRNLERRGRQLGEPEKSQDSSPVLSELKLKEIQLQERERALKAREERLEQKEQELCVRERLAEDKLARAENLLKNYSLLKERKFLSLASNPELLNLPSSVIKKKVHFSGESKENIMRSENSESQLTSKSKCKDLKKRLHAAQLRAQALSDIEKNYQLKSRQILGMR

[2] = molecular target: Platelet-derived growth factor receptor beta (Homo sapiens) (UniProt P09619); assay: Enzymatic radiometric [Km ATP] KinaseProfiler LeadHunter assay, kinase: PDGFR-beta, catalogue number: 14-463KP The assay has been performed by Eurofins Discovery.; details: ATP concentration 200.0 uM, Test compound concentration 10.0 uM
[3] = molecular target: T2, cGMP-dependent protein kinase 1 (Homo sapiens) (UniProt Q13976); assay: Enzymatic radiometric [Km ATP] KinaseProfiler LeadHunter assay, kinase: PKG1-alpha, catalogue number: 14-688KP The assay has been performed by Eurofins Discovery.; details: ATP concentration 90.0 uM, Test compound concentration 10.0 uM
T2 sequence (whole entry): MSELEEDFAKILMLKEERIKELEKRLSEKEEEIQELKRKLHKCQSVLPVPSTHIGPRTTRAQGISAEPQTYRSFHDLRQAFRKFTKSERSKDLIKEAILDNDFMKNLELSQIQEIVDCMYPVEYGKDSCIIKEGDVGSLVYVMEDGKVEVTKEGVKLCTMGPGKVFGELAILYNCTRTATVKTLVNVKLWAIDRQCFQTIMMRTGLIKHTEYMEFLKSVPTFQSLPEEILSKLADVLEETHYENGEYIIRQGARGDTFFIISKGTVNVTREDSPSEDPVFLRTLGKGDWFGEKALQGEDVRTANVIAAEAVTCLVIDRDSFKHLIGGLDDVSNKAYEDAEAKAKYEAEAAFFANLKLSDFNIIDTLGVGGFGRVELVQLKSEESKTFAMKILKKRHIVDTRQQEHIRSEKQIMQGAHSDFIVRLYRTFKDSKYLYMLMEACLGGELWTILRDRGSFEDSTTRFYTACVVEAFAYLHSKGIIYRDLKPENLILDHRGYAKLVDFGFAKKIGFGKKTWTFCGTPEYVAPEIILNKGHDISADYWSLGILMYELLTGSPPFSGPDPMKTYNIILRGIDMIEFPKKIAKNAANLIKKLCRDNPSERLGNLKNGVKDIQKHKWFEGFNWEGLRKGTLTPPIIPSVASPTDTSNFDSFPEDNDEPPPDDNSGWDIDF

[4] = molecular target: Rho-associated protein kinase 1 (Homo sapiens) (UniProt Q13464); assay: Enzymatic radiometric [Km ATP] KinaseProfiler LeadHunter assay, kinase: ROCK-I, catalogue number: 14-601KP The assay has been performed by Eurofins Discovery.; details: ATP concentration 70.0 uM, Test compound concentration 10.0 uM
[5] = molecular target: T3, Serine/threonine-protein kinase 4 (Homo sapiens) (UniProt Q13043); assay: Enzymatic radiometric [Km ATP] KinaseProfiler LeadHunter assay, kinase: MST1, catalogue number: 14-624KP The assay has been performed by Eurofins Discovery.; details: ATP concentration 90.0 uM, Test compound concentration 10.0 uM
T3 sequence (whole entry): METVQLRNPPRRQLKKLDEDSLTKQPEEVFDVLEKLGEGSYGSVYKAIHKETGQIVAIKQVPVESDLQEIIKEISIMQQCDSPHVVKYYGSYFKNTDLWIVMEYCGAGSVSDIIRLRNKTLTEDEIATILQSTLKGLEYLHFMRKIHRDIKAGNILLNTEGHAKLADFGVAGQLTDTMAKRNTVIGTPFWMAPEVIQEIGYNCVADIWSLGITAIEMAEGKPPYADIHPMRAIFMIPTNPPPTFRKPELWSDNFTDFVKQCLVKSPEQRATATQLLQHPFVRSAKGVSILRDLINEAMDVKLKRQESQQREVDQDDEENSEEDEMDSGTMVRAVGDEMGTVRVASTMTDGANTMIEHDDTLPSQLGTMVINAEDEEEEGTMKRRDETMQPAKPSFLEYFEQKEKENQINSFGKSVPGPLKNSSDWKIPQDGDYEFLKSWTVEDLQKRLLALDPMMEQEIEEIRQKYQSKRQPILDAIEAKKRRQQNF

[6] = molecular target: PI3-kinase p110-alpha/p85-alpha (Homo sapiens) (UniProt P27986+P42336); assay: Enzymatic radiometric [Km ATP] KinaseProfiler LeadHunter assay, kinase: PI3 Kinase (p110-alpha/p85-alpha), catalogue number: 14-602KP The assay has been performed by Eurofins Discovery.; format: protein-complex assay; details: ATP concentration 200.0 uM, Test compound concentration 10.0 uM
[7] = molecular target: Insulin-like growth factor 1 receptor (Homo sapiens) (UniProt P08069); assay: Enzymatic radiometric [Km ATP] KinaseProfiler LeadHunter assay, kinase: IGF-1R, catalogue number: 14-465KP The assay has been performed by Eurofins Discovery.; details: ATP concentration 200.0 uM, Test compound concentration 10.0 uM
[8] = molecular target: Tyrosine-protein kinase JAK2 (Homo sapiens) (UniProt O60674); assay: Enzymatic radiometric [Km ATP] KinaseProfiler LeadHunter assay, kinase: JAK2, catalogue number: 14-640KP The assay has been performed by Eurofins Discovery.; details: ATP concentration 45.0 uM, Test compound concentration 10.0 uM
[9] = molecular target: Casein kinase II subunit alpha' (Homo sapiens) (UniProt P19784); assay: Enzymatic radiometric [Km ATP] KinaseProfiler LeadHunter assay, kinase: CK2-alpha2, catalogue number: 14-689KP The assay has been performed by Eurofins Discovery.; details: ATP concentration 10.0 uM, Test compound concentration 10.0 uM
[10] = molecular target: 5'-AMP-activated protein kinase catalytic subunit alpha-1 (Homo sapiens) (UniProt Q13131); assay: Enzymatic radiometric [Km ATP] KinaseProfiler LeadHunter assay, kinase: AMPK-alpha1, catalogue number: 14-840KP The assay has been performed by Eurofins Discovery.; details: ATP concentration 45.0 uM, Test compound concentration 10.0 uM
Chain of 5'-AMP-activated protein kinase catalytic subunit alpha-1 (Homo sapiens) (Q13131 whole entry, looked up): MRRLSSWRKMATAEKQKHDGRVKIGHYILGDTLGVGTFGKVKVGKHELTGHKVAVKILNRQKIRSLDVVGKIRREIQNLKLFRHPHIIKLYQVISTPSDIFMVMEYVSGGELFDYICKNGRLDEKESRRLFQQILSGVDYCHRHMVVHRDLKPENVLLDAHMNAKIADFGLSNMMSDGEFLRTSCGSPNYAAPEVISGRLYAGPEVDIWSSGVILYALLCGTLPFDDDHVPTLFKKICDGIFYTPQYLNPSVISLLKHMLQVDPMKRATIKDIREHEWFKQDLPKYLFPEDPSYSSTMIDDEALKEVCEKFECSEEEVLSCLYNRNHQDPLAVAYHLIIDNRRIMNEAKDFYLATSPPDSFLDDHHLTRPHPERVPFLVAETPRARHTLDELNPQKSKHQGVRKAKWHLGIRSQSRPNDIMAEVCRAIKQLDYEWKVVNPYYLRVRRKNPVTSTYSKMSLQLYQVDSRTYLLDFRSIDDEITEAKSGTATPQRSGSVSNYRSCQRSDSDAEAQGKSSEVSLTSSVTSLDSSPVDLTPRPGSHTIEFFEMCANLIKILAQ

Chain of Insulin-like growth factor 1 receptor (Homo sapiens) (P08069 31-736 limits assumed): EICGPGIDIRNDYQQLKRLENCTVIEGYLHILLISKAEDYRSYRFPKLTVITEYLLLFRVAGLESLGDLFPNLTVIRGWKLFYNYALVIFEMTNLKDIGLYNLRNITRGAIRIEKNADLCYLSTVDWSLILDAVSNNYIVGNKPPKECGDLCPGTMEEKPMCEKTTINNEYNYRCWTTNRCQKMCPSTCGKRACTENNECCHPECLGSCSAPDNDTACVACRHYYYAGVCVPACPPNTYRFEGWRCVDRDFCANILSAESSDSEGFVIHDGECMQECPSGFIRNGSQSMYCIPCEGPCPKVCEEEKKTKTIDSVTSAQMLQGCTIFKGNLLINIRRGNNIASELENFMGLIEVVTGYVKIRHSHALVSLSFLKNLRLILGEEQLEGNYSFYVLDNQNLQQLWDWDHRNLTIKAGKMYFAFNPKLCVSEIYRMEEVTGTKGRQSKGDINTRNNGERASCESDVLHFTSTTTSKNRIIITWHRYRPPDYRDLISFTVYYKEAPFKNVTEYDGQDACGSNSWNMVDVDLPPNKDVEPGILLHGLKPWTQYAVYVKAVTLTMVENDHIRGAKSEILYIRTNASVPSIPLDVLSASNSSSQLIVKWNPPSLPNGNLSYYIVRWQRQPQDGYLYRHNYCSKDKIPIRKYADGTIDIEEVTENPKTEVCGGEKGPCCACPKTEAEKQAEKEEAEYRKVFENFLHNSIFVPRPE
Chain of Insulin-like growth factor 1 receptor (Homo sapiens) (P08069 741-1367 limits assumed): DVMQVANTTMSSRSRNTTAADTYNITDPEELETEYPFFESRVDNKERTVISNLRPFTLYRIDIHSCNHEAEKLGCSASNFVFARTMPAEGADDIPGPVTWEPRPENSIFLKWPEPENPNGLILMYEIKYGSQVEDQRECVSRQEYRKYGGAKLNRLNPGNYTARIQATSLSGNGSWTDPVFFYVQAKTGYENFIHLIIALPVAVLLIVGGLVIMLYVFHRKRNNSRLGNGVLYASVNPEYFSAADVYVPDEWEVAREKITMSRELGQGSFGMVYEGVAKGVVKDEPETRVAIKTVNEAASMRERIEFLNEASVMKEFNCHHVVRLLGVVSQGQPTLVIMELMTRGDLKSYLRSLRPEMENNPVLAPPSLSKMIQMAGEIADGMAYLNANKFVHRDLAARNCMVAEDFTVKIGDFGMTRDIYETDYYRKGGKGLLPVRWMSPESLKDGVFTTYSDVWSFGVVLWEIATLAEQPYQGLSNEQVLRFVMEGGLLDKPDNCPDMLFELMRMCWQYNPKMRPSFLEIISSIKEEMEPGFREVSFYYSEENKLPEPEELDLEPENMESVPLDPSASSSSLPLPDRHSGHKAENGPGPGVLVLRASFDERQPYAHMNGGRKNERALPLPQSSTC
Chain of Tyrosine-protein kinase JAK2 (Homo sapiens) (O60674 whole entry): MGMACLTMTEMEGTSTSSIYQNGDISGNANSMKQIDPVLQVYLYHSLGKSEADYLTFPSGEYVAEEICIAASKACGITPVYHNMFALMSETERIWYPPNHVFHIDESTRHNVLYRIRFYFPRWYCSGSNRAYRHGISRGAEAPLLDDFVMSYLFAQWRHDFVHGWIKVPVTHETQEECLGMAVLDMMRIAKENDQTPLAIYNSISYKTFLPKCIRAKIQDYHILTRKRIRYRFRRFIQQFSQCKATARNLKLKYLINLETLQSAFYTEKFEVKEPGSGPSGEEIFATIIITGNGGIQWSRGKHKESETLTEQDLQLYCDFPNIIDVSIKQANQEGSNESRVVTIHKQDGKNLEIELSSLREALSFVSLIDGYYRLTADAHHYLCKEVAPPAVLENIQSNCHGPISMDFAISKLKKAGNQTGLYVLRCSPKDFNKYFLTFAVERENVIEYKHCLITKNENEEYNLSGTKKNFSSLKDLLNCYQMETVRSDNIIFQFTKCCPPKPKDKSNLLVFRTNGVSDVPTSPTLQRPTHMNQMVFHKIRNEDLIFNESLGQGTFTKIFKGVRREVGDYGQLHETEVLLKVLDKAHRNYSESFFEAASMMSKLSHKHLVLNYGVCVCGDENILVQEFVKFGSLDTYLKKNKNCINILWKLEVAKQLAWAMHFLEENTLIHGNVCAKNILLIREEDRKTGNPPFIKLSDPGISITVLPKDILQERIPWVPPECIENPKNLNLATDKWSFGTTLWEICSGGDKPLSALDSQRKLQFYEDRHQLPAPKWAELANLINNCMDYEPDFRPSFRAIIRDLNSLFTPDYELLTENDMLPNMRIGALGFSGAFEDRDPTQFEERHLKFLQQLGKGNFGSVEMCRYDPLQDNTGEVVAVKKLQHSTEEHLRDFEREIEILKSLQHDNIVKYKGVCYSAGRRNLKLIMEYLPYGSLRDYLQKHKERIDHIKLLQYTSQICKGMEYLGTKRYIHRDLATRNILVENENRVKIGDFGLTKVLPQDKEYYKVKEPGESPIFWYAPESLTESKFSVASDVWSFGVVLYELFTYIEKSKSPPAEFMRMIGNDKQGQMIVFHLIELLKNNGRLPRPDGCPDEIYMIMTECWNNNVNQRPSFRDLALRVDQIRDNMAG
Chain of Rho-associated protein kinase 1 (Homo sapiens) (Q13464 2-1354 limits assumed): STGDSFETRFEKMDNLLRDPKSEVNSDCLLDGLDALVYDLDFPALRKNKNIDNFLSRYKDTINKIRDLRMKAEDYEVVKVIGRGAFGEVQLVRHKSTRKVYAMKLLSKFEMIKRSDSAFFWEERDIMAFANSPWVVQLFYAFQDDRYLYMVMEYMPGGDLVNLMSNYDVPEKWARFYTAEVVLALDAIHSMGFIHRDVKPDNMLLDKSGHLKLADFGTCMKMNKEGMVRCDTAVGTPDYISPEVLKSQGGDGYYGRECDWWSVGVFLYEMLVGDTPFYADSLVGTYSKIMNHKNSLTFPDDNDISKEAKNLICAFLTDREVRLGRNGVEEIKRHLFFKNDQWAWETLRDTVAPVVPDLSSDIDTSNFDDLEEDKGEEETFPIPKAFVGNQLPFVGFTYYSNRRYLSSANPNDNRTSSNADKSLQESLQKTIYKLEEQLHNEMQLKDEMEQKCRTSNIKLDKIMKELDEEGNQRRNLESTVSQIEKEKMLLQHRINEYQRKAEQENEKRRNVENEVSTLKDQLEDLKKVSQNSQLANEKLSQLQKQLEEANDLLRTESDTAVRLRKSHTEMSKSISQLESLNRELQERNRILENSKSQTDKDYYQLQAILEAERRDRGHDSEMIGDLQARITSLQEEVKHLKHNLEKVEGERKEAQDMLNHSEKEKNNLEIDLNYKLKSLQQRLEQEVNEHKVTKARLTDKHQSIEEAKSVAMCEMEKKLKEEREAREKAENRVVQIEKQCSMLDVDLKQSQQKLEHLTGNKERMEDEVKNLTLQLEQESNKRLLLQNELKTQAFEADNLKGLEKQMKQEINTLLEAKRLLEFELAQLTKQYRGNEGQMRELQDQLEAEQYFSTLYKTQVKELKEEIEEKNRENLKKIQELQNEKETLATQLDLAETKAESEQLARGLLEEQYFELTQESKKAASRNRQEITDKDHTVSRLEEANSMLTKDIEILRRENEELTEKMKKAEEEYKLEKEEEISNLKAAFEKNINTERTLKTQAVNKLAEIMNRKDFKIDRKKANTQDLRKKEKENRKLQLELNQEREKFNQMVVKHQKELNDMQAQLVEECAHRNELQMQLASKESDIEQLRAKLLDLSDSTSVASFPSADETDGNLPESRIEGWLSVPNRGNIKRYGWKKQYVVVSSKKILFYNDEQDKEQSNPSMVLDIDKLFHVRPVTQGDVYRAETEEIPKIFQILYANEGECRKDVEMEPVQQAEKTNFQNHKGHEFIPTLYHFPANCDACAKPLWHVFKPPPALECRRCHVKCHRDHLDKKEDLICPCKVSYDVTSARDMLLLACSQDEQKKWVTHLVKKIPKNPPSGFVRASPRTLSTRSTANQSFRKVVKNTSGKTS
Chain of Casein kinase II subunit alpha' (Homo sapiens) (P19784 whole entry, looked up): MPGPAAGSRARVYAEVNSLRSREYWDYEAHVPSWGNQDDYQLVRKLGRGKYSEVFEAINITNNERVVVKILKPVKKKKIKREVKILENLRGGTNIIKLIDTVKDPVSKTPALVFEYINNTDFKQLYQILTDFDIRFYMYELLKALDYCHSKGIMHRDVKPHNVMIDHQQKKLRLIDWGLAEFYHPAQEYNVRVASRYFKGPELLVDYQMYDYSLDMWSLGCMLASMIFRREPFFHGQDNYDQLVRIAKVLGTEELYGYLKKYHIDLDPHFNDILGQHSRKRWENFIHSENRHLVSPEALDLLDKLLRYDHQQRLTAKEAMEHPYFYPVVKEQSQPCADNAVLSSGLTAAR

| SMILES | Activity [1] | Activity [2] | Activity [3] | Activity [4] | Activity [5] | Activity [6] | Activity [7] | Activity [8] | Activity [9] | Activity [10] |
| --- | --- | --- | --- | --- | --- | --- | --- | --- | --- | --- |
| COc1ccc([C@H](Cc2nnn[nH]2)NC(=O)c2ncnc3[nH]ccc23)cc1 | 106% | 103% | 121% | 103% | 127% | 99% | 103% | 116% | 93% | 97% |
| Cn1ncc(-c2cc3c(N[C@@H](c4ccc5c(n4)OCCO5)C(C)(C)C)ncnc3[nH]2)c1C#N | 104% | 100% | 127% | 129% | 115% | 75% | 77% | 140% | 92% | 109% |
| CNC(=O)Cn1cc(-c2cc3c(N[C@@H](c4ccc5c(c4)S(=O)(=O)CCC5)C(C)C)ncnc3[nH]2)cn1 | 114% | 90% | 120% | 104% | 112% | 102% | 105% | 94% | 88% | 104% |
| COc1ccc([C@@H](Cc2nnn[nH]2)NC(=O)c2ncnc3[nH]ccc23)cc1 | 100% | 102% | 95% | 93% | 98% | 101% | 106% | 102% | 88% | 101% |
| CC(C)[C@H](Nc1ncnc2[nH]c(-c3cnn(C)c3C#N)cc12)c1ccc2c(n1)OCCO2 | 105% | 92% | 130% | 115% | 120% | 70% | 85% | 115% | 95% | 111% |
| CC(C)[C@@H](Nc1ncnc2[nH]c(-c3cnn(C)c3C#N)cc12)c1ccc2c(n1)OCCO2 | 94% and 76% | 108% and 93% | 100% and 123% | 93% and 107% | 103% and 121% | 49% and 55% | 108% and 94% | 101% and 123% | 86% and 93% | 116% and 99% |
| C[C@H](C(=O)O)[C@@H](NC(=O)c1ncnc2[nH]ccc12)c1ccc(Br)cc1 | 101% | 110% | 118% | 90% | 121% | 100% | 95% | 99% | 91% | 93% |

Next, values leading:

| Activity [1] | Activity [2] | Activity [3] | Activity [4] | Activity [5] | Activity [6] | Activity [7] | Activity [8] | Activity [9] | Activity [10] | SMILES |
| --- | --- | --- | --- | --- | --- | --- | --- | --- | --- | --- |
| 118% | 99% | 88% | 110% | 88% | 104% | 88% | 110% | 90% | 94% | CC(C)[C@@H](Nc1ncnc2[nH]ccc12)c1ccc2c(c1)S(=O)(=O)CCC2 |
| 105% | 89% | 115% | 102% | 108% | 99% | 99% | 114% | 90% | 86% | CNCc1cc(-c2cc3c(N[C@@H](c4ccc5c(c4)S(=O)(=O)CCC5)C(C)C)ncnc3[nH]2)co1 |
| 118% | 83% | 116% | 98% | 122% | 104% | 104% | 106% | 98% | 107% | CC(C)[C@@H](Nc1ncnc2[nH]c(C(=O)N[C@@H]3CCN(C)C3)cc12)c1ccc2c(c1)S(=O)(=O)CCC2 |
| 109% | 89% | 123% | 115% | 126% | 94% | 100% | 99% | 87% | 104% | CC(C)[C@H](Nc1ncnc2[nH]ccc12)c1ccc2c(c1)S(=O)(=O)CCC2 |
| 98% | 97% | 128% | 103% | 115% | 102% | 97% | 111% | 92% | 102% | Cc1nn(C)cc1-c1cc2c(N[C@H](c3ccc4c(c3)S(=O)(=O)CCC4)C(C)C)ncnc2[nH]1 |
